Measurements: US10087148B2, “Quinazolines as biogenic amine transport modulators” (THE UNITED STATES OF AMERICA AS REPRESENTED BY THE …, priority 2014, dated 2018)

Experiments:
[1] = molecular target: T1, dopamine transporter (DAT) (Rattus norvegicus (Rat), UniProt P23977); test: [3H]dopamine (DA) uptake inhibition in rat brain (caudate) synaptosomes; assay type: biochemical
[2] = molecular target: serotonin transporter (SERT) (Rattus norvegicus (Rat), UniProt P31652); test: [3H]serotonin (5-HT) uptake inhibition in rat brain synaptosomes; assay type: biochemical; conditions: for Emax / IC50: mean ± S.D., n = 3; for Emax: read-out: SERT Uptake Emax
Protocol: Uptake inhibition assay for the serotonin transporter was conducted in rat brain synaptosomes as described elsewhere with minor modifications (Rothman et al., Synapse 39, 32-41 (2001)). Freshly removed whole brain minus cerebellum and caudate was homogenized in 10% ice-cold sucrose with 12 strokes of a hand-held Potter-Elvehjem homogenizer followed by centrifugation at 1000×g for 10 min. The supernatants were saved on ice and used immediately. Transporter activity at SERT was assessed using 5 nM [^3H]serotonin. The assay buffer was Krebs-phosphate buffer containing 154.4 mM NaCl, 2.9 mM KCl, 1.1 mM CaCl2, 0.83 mM MgCl2, 5 mM glucose, 1 mg/mL ascorbic acid, and 50 μM pargyline. […] Uptake inhibition assays were conducted at 25° C. and were initiated by adding 100 μL of tissue to 900 μL assay buffer containing test drug and [^3H]serotonin. Test drugs were diluted in assay buffer containing 1 mg/mL bovine serum albumin. Nonspecific uptake was measured by incubating in the presence of 10 μM indatraline. The reactions were stopped after 30 min by rapid vacuum filtration with a cell harvester (BRANDEL) over GF/B filters (Whatman) presoaked in wash buffer maintained at 25° C. (10 mM Tris-HCl, pH 7.4/150 mM NaCl). Filters were rinsed with 6 mL wash buffer and retained tritium was quantified by a MicroBeta liquid scintillation counter (PerkinElmer) after overnight extraction in 0.6 mL of liquid scintillation cocktail (Cytoscint, ICN). The data from three experiments were pooled and fit to a dose-response curve equation (using Kaleidagraph), to yield an Emax and EC50 value.

[3] = molecular target: norepinephrine transporter (NET) (Rattus norvegicus, UniProt Q63380); test: [3H]norepinephrine (NE) uptake inhibition in rat brain synaptosomes; assay type: biochemical; conditions: for Emax: read-out: NET Uptake Emax; for IC50: read-out: NET Uptake IC50, mean ± S.D., n = 3
Protocol: Uptake inhibition assay for the norepinephrine transporter was conducted in rat brain synaptosomes as described elsewhere with minor modifications (Rothman et al., Synapse 39, 32-41 (2001)). Freshly removed whole brain minus cerebellum and caudate was homogenized in 10% ice-cold sucrose with 12 strokes of a hand-held Potter-Elvehjem homogenizer followed by centrifugation at 1000×g for 10 minutes. The supernatants were saved on ice and used immediately. Transporter activity at NET was assessed using 10 nM [^3H]norepinephrine. The assay buffer was Krebs-phosphate buffer containing 154.4 mM NaCl, 2.9 mM KCl, 1.1 mM CaCl2, 0.83 mM MgCl2, 5 mM glucose, 1 mg/mL ascorbic acid, and 50 μM pargyline. […] Uptake inhibition assays were conducted at 37° C. and were initiated by adding 100 μL of tissue to 900 μL assay buffer containing test drug and [^3H]norepinephrine. Test drugs were diluted in assay buffer containing 1 mg/mL bovine serum albumin. Nonspecific uptake was measured by incubating in the presence of 10 μM indatraline. The reactions were stopped after 10 minutes by rapid vacuum filtration with a cell harvester (BRANDEL) over GF/B filters (Whatman) presoaked in wash buffer maintained at 25° C. (10 mM Tris-HCl, pH 7.4/150 mM NaCl). Filters were rinsed with 6 mL wash buffer and retained tritium was quantified by a MicroBeta liquid scintillation counter (PerkinElmer) after overnight extraction in 0.6 mL of liquid scintillation cocktail (Cytoscint, ICN). The data from three experiments were pooled and fit to a dose-response curve equation (using Kaleidagraph), to yield an Emax and EC50 value.

[4] = molecular target: T1, dopamine transporter (DAT); test: Dopamine transporter-mediated [3H]MPP+ release (d-amphetamine-induced, shift experiments) in rat caudate synaptosomes; assay type: biochemical; conditions: [3H]MPP+ release; for Emax: read-out: d-Amphetamine Emax in presence of blocker, blocker concentration per row, mean ± S.D., n = 3; for Apparent Kc: [Blocker]/((EC50-2/EC50-1) − 1)
DAT = DAT (Rattus norvegicus (Rat), UniProt P23977); test: Inhibition of [3H]WIN35428 binding to rat caudate DAT
Protocol: All of the test compounds were synthesized as described herein. […] The data from three experiments were pooled and fit to a dose-response curve equation (using KaleidaGraph; Synergy Software, Reading, Pa.) to yield an Emax and IC50 value. […] Selected compounds were also tested for their ability to inhibit [^3H]WIN35428 binding to rat caudate DAT.

[5] = rat brain synaptosomes, 5 nM [3H]serotonin, mean ± SD
[6] = [3H]WIN35428, mean ± S.D., n = 3
[7] = mean ± S.D., n = 3, read-out: DAT Uptake Emax
[8] = values in Table 9, read-out: Emax for DAT Uptake Inhibition
[9] = [3H]WIN35428, mean ± S.D., n = 3, unit as printed in head (text gives 1100 nM where table prints 1.1)

Chain of norepinephrine transporter (NET) (Q63380 1-617): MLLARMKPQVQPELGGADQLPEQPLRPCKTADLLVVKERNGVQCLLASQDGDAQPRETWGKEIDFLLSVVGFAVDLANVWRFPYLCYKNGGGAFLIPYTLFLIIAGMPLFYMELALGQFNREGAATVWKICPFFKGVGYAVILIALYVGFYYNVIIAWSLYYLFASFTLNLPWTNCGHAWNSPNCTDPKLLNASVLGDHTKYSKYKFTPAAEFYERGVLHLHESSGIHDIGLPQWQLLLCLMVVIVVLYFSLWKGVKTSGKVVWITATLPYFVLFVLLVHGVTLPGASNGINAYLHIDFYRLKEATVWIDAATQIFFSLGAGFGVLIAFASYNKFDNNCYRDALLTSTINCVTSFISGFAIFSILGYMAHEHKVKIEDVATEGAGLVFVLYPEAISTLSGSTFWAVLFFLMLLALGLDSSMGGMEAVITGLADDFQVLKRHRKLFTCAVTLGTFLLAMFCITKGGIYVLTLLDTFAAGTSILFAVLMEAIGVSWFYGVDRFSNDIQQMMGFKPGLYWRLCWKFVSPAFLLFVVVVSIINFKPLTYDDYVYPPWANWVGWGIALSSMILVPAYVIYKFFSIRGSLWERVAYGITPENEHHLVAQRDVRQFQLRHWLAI
Chain of serotonin transporter (SERT) (P31652 whole entry): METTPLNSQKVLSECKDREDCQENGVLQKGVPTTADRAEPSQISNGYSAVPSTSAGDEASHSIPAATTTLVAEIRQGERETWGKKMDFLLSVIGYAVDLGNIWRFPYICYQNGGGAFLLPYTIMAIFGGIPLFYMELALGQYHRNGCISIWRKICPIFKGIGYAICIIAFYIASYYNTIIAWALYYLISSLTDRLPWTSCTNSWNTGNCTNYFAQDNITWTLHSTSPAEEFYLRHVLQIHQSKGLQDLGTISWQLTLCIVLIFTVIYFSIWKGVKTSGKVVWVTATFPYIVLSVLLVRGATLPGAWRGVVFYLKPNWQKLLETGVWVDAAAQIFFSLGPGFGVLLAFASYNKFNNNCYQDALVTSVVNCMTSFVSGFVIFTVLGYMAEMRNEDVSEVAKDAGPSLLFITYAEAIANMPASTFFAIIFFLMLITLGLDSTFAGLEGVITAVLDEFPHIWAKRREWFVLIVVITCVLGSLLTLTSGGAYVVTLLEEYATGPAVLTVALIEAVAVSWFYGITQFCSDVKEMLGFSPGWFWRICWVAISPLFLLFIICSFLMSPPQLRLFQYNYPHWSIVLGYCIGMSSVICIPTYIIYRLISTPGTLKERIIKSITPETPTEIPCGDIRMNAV
T1 sequence (P23977 whole entry): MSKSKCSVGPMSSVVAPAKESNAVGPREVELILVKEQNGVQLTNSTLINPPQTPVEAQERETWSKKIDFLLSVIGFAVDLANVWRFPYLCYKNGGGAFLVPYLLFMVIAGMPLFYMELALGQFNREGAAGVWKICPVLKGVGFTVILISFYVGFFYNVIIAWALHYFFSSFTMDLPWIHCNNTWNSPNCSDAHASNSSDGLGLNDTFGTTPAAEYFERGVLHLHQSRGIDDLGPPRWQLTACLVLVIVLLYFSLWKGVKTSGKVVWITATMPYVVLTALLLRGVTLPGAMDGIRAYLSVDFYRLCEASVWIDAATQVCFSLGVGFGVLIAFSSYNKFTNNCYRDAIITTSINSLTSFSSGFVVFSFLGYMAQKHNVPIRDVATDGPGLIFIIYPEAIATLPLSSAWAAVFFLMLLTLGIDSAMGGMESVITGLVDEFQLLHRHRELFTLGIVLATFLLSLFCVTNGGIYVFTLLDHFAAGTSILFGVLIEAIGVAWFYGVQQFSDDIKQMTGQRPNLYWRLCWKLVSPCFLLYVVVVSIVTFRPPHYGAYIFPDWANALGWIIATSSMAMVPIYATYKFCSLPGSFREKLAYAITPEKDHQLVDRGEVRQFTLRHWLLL
Chain of DAT (P23977 whole entry): as above

## CS(=O)(=O)Nc1ccc(-c2nc(NCC(c3ccccc3)c3ccncc3)c3ccccc3n2)cc1 (centres unmarked) [Compound 10, N-(4-(4-((2-phenyl-2-(pyridin-4-yl)ethyl)amino)quinazolin-2-yl)phenyl)methanesulfonamide]
[1]; mean ± S.D., n = 3
  DAT Uptake Emax: 71 ± 1%
[1]; rat caudate synaptosomes, 5 nM [3H]dopamine, mean ± SD
  DA Uptake Emax: 71 ± 1 % I
[2]
  Emax: 56 ± 1%
[2]; [5]
  5HT Uptake Emax: 56 ± 1 % I
  EC50: 8.7 ± 0.9 nM
[3]; rat brain synaptosomes, 10 nM [3H]norepinephrine, mean ± SD
  NE Uptake Emax: 76 ± 2 % I
[3]; read-out: NE Uptake EC50, rat brain synaptosomes, 10 nM [3H]norepinephrine, mean ± SD
  EC50: 44 ± 6 nM
[3]
  Emax: 76 ± 2%
  IC50: 44 ± 6 nM
[4]; read-out: D-Amphetamine Emax in presence of compound, compound concentration 125 nM, mean ± SD
  Emax at 0.125 µM: 103 ± 3%
[4]
  Emax: 103 ± 3%
DAT; [6]
  DAT Binding Emax: 52 ± 6%

## CS(=O)(=O)Nc1ccc(-c2nc(NCC(c3ccccc3)c3ccccc3)c3ccccc3n2)cc1 [Compound 50, N-(4-(4-((2,2-diphenylethyl)amino)quinazolin-2-yl)phenyl)methanesulfonamide]
[1]; [7]
  Emax: 70 ± 2%
[1]; [8]
  Emax: 70%
[2]
  Emax: 56 ± 2%
[3]
  Emax: 71 ± 2%
  IC50: 90 ± 15 nM
[4]
  Emax: 102 ± 2%
DAT; [6]
  Emax: 65 ± 6%

## CN(C)c1ccc(-c2nc(NCC(c3ccccc3)c3ccccc3)c3ccccc3n2)cc1 [Compound 51, 2-(4-(dimethylamino)phenyl)-N-(2,2-diphenylethyl)quinazolin-4-amine]
[1]; [7]
  Emax: 70 ± 3%
[1]; [8]
  Emax: 70%
[2]
  Emax: 44 ± 4%
[3]
  Emax: 68 ± 7%
  IC50: 143 ± 61 nM
[4]
  Emax: 101 ± 2%
DAT; [6]
  Emax: 100 ± 3%
DAT; binding IC50 / uptake IC50
  DAT binding IC50 weaker than IC50 for inhibition of DAT uptake: 155 fold

## c1ccc(C(CCNc2nc(-c3cccnc3)nc3ccccc23)c2ccccc2)cc1 [SRI-29070]
[1]; mean ± S.D., n = 3
  IC50: 174 ± 58 nM
[1]; [7]
  Emax: 66 ± 4%
[1]; [8]
  Emax: 66%
[2]
  IC50: 699 ± 164 nM
  Emax: 48 ± 3%
[3]
  Emax: 64 ± 10%
  IC50: 1740 ± 1150 nM
[4]
  Apparent Kc: 7050 nM
  Emax: 98 ± 1%
DAT; [6]
  Emax: 71 ± 4%
DAT; [9]
  IC50: 1800 ± 400 nM

## c1ccc(C(CNc2nc(-c3cccnc3)nc3ccccc23)c2ccccc2)cc1 [SRI-29072]
[1]; mean ± S.D., n = 3
  IC50: 212 ± 49 nM
[1]; [7]
  Emax: 71 ± 3%
[1]; [8]
  Emax: 71%
[2]
  IC50: 6380 ± 2640 nM
  Emax: 56 ± 9%
[3]
  Emax: 62 ± 5%
  IC50: 5850 ± 1750 nM
[4]
  Apparent Kc: 25830 nM
  Emax: 96 ± 3%
DAT; [6]
  Emax: 77 ± 2%
DAT; [9]
  IC50: 2700 ± 300 nM

## CN(C)c1ncc(-c2nc(NCC(c3ccccc3)c3ccccc3)c3ccccc3n2)cn1 [SRI-29153]
[1]; [7]
  Emax: 73 ± 1%
[1]; [8]
  Emax: 73%
[2]
  Emax: 55 ± 5%
[3]
  Emax: 73 ± 4%
  IC50: 181 ± 46 nM
[4]
  Apparent Kc: 1820 nM
  Emax: 101 ± 3%
DAT; [6]
  Emax: 76 ± 2%
DAT; [9]
  IC50: 1700 ± 200 nM

## c1ccc(C(CNc2nc(-c3ccc4[nH]ccc4c3)nc3ccccc23)c2ccccc2)cc1 [SRI-29155]
[1]; [7]
  Emax: 74 ± 1%
[1]; [8]
  Emax: 74%
[2]
  Emax: 54 ± 2%
[3]
  Emax: 70 ± 3%
  IC50: 290 ± 52 nM
[4]
  Apparent Kc: 456 nM
  Emax: 94 ± 2%
DAT; [6]
  Emax: 87 ± 4%
DAT; [9]
  IC50: 900 ± 200 nM

## CN(C)c1ncc(-c2nc(NCCC(c3ccccc3)c3ccccc3)c3ccccc3n2)cn1 [SRI-29212]
[1]; mean ± S.D., n = 3
  IC50: 672 ± 204 nM
[1]; [7]
  Emax: 67 ± 4%
[1]; [8]
  Emax: 67%
[2]
  IC50: 3800 ± 1640 nM
  Emax: 50 ± 7%
[3]
  Emax: 64 ± 5%
  IC50: 8130 ± 2270 nM
[4]
  Apparent Kc: 64580 nM
  Emax: 103 ± 2%
DAT; [6]
  Emax: 72 ± 4%
DAT; [9]
  IC50: 2200 ± 500 nM

## CN(C)c1ccc(-c2nc(NCC(c3ccccc3)c3ccccc3)c3ccccc3n2)cn1 [SRI-29779]
[1]; [7]
  Emax: 63 ± 3%
[1]; [8]
  Emax: 63%
[2]
  Emax: 51 ± 2%
[3]
  Emax: 71 ± 6%
  IC50: 147 ± 63 nM
[4]
  Apparent Kc: 912 nM
  Emax: 99 ± 2%
DAT; [6]
  Emax: 83 ± 3%
DAT; [9]
  IC50: 1200 ± 200 nM

## c1ccc(C(CNc2nc(-c3cnc4nccn4c3)nc3ccccc23)c2ccccc2)cc1 [SRI-29991]
[1]; [7]
  Emax: 68 ± 1%
[1]; [8]
  Emax: 68%
[2]
  Emax: 51 ± 1%
[3]
  Emax: 69 ± 2%
  IC50: 63 ± 9 nM
[4]
  Apparent Kc: -1070 nM
  Emax: 102 ± 2%
DAT; [6]
  Emax: 18 ± 4%
DAT; [9]
  IC50: 1220 ± 1120 nM

## c1ccc(C(CNc2nc(-c3cnc4nccn4c3)nc3ccccc23)C2CCCCC2)cc1 (centres unmarked) [SRI-30517]
[1]; [7]
  Emax: 70 ± 1%
[1]; [8]
  Emax: 70%
[2]
  Emax: 54 ± 1%
[3]
  Emax: 70 ± 2%
  IC50: 95 ± 12 nM
[4]
  Apparent Kc: 1600 nM
  Emax: 104 ± 4%
DAT; [6]
  Emax: 43 ± 4%
DAT; [9]
  IC50: 160 ± 80 nM

## c1ccc(C(CNc2nc(-c3ccc4ncnn4c3)nc3ccccc23)c2ccccc2)cc1 [SRI-30522]
[1]; [7]
  Emax: 63 ± 1%
[1]; [8]
  Emax: 63%
[2]
  Emax: 35 ± 3%
[3]
  Emax: 40 ± 5%
  IC50: 86 ± 55 nM
[4]
  Emax: 105 ± 4%
DAT; [6]
  DAT Binding Emax: Inactive
DAT; [9]
  DAT Binding IC50: Inactive

## c1ccc(C(CNc2nc(-c3cnc4nccn4c3)nc3ccccc23)c2ccncc2)cc1 (centres unmarked) [SRI-30810]
[1]; [7]
  Emax: 64 ± 1%
[1]; [8]
  Emax: 64%
[2]
  Emax: 51 ± 2%
[3]
  Emax: 69 ± 2%
  IC50: 60 ± 10 nM
[4]
  Apparent Kc: 1200 nM
  Emax: 104 ± 5%
DAT; [6]
  Emax: 25 ± 2%
DAT; [9]
  IC50: 820 ± 360 nM
